{"source": "paper PMC6764862", "about": "(Xenobiotica; the fate of foreign compounds in biological …, 2019)", "key": {"[1]": {"target": "T1, human AhR (hAhR) (Homo sapiens, UniProt P35869)", "T1 sequence (P35869 11-848)": "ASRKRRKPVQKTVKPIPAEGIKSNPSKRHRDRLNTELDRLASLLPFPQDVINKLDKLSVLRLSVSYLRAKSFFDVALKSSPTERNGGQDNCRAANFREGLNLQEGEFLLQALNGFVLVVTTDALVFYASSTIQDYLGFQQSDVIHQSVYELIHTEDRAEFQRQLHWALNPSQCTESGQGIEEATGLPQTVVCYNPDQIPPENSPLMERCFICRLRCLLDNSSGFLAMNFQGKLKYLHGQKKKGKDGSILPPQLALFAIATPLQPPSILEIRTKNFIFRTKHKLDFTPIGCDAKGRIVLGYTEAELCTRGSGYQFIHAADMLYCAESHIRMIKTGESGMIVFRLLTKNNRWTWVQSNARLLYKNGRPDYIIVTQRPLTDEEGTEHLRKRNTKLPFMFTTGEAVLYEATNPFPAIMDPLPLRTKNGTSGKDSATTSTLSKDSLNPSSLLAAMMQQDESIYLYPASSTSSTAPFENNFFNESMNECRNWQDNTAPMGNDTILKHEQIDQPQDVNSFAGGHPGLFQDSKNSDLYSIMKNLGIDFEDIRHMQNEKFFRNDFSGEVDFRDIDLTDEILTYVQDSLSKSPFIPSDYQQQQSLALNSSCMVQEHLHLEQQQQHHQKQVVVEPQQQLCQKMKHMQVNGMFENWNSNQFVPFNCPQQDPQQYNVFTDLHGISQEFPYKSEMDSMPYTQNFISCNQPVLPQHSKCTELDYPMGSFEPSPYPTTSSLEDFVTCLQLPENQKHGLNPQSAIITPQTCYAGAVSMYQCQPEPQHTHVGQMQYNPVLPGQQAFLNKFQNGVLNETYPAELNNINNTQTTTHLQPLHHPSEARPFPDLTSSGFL", "assay": "AhR-dependent pXRE-SV40-Luc luciferase reporter in HepG2 cells", "format": "cell-based", "details": "for Relative effect potency (REP) HepG2: EC50-based, relative to TCDD, human system; for maximum response, luciferase activity: concentration-response"}, "[2]": {"target": "T2, mouse AhR (mAhR) (Mus musculus, UniProt P30561)", "T2 sequence (P30561 10-848)": "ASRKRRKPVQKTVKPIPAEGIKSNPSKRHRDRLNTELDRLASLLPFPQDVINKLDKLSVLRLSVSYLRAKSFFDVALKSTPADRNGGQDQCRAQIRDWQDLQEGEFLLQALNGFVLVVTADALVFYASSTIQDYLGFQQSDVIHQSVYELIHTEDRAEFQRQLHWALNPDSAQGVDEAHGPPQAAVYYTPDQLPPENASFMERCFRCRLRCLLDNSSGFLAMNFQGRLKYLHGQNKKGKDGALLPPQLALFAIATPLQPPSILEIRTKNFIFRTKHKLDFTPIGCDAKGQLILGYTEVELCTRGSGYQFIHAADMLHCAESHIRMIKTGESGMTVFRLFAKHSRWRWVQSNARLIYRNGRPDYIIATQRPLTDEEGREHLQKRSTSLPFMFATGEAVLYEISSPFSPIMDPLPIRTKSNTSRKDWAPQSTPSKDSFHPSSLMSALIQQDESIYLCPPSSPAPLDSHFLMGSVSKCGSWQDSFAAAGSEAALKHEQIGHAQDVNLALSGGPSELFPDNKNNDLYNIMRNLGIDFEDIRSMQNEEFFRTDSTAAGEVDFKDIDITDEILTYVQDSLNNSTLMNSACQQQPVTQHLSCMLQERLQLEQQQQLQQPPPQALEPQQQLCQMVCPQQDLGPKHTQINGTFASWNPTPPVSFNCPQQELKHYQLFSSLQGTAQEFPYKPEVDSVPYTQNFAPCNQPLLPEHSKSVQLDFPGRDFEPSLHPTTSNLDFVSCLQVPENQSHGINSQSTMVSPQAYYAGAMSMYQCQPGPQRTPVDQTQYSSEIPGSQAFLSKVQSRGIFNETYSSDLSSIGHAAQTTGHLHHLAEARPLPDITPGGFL", "details": "for Relative effect potency (REP) Hepa1c1c7: EC50-based, relative to TCDD, murine system; for maximum response, luciferase activity: concentration-response"}, "[3]": {"tested_on": "mouse AhR (mAhR)", "details": "for REP ratio Hepa1c1c7/HepG2: mouse REP over human REP"}, "[4]": {"tested_on": "CYP1A1 (AhR target gene)", "assay": "CYP1A1 mRNA induction in primary human hepatocytes", "format": "cell-based", "details": "primary human hepatocytes"}, "[5]": {"tested_on": "Cyp1a1 (AhR target gene)", "assay": "Cyp1a1 mRNA induction in primary mouse hepatocytes", "format": "cell-based", "details": "primary mouse hepatocytes"}, "[6]": {"tested_on": "EGFR", "details": "up to; highest potency of all congeners tested; ref Hardesty et al., 2018; cited from earlier work"}, "[7]": {"tested_on": "CYP1A1 mRNA (AhR target gene)", "assay": "CYP1A1 mRNA induction in primary human hepatocytes", "format": "cell-based", "details": "human"}, "[8]": {"tested_on": "Cyp1a1 mRNA (AhR target gene)", "assay": "Cyp1a1 mRNA induction in primary mouse hepatocytes", "format": "cell-based", "details": "male, C57BL/6, mouse"}, "[9]": {"target": "T2, mouse AhR (mAhR)", "assay": "in vitro", "details": "hepa1c1c7 cells"}, "[10]": {"details": "read-out: EC50 for AhR luciferase reporter activity, HepG2 cells, 24 h treatment"}}, "note": "Read-outs that look alike come from different tables or passages of the source.", "data": [{"smiles": "Clc1ccc(-c2ccc(Cl)c(Cl)c2)cc1Cl", "note": "[PCB 77]", "values": [{"measurement": "Relative effect potency (REP) HepG2", "setting": "[1]", "value": "≤ 0.00009"}, {"measurement": "EC50", "setting": "[1]; [10]", "value": "≥ 4000", "unit": "nM"}, {"measurement": "Relative effect potency (REP) Hepa1c1c7", "setting": "[2]", "value": 0.0003}, {"measurement": "REP ratio Hepa1c1c7/HepG2", "setting": "[3]", "value": "≥ 3.3"}]}, {"smiles": "Clc1ccc(-c2cc(Cl)c(Cl)c(Cl)c2)cc1", "note": "[PCB 81]", "values": [{"measurement": "Relative effect potency (REP) HepG2", "setting": "[1]", "value": 0.06}, {"measurement": "maximum response, luciferase activity", "setting": "[1]; HepG2 cells", "value": 34.6, "unit": "fold"}, {"measurement": "WHO 2005 TEF fold lower than the human REP", "setting": "[1]; TEF vs HepG2 REP of this study", "value": 200, "unit": "fold"}, {"measurement": "EC50", "setting": "[1]; [10]", "value": "6.8 ± 2.7", "unit": "nM"}, {"measurement": "Relative effect potency (REP) Hepa1c1c7", "setting": "[2]", "value": 0.0009}, {"measurement": "maximum response, luciferase activity", "setting": "[2]; Hepa1c1c7 cells", "value": 2.3, "unit": "fold"}, {"measurement": "fold higher EC50 in Hepa1c1c7 cells compared to HepG2 cells", "setting": "[3]; luciferase reporter", "value": "approximately 5 fold"}, {"measurement": "REP ratio Hepa1c1c7/HepG2", "setting": "[3]", "value": 0.015}]}, {"smiles": "Clc1ccc(-c2cc(Cl)c(Cl)c(Cl)c2Cl)cc1", "note": "[PCB 114]", "values": [{"measurement": "Relative effect potency (REP) HepG2", "setting": "[1]", "value": "≤ 0.00007"}, {"measurement": "EC50", "setting": "[1]; [10]", "value": "≥ 5000", "unit": "nM"}, {"measurement": "Relative effect potency (REP) Hepa1c1c7", "setting": "[2]", "value": 0.00004}, {"measurement": "REP ratio Hepa1c1c7/HepG2", "setting": "[3]", "value": "≥ 0.5"}]}, {"smiles": "Clc1ccc(-c2cc(Cl)c(Cl)c(Cl)c2)cc1Cl", "note": "[PCB 126]", "values": [{"measurement": "Relative effect potency (REP) HepG2", "setting": "[1]", "value": 0.002}, {"measurement": "luciferase activity increase", "setting": "[1]; HepG2 cells, 10 μM, 24 h, positive controls", "value": 42, "unit": "fold"}, {"measurement": "maximum response, luciferase activity", "setting": "[1]; HepG2 cells", "value": 31.6, "unit": "fold"}, {"measurement": "WHO 2005 TEF fold higher than the human REP", "setting": "[1]; TEF vs HepG2 REP of this study", "value": 50, "unit": "fold"}, {"measurement": "EC50", "setting": "[1]; [10]", "value": "250 ± 150", "unit": "nM"}, {"measurement": "maximal induction of CYP1A1 mRNA", "setting": "[4]", "value": 45.1, "unit": "fold"}, {"measurement": "EC50", "setting": "[4]; read-out: EC50 for induction of CYP1A1 mRNA, 24 h", "value": "195 ± 35", "unit": "nM"}, {"measurement": "maximal induction of Cyp1a1 mRNA", "setting": "[5]", "value": 53.3, "unit": "fold"}, {"measurement": "IC50 for EGFR inhibition", "setting": "[6]", "value": "−16.07 ± 0.31", "unit": "log M"}, {"measurement": "Relative effect potency (REP) Hepa1c1c7", "setting": "[2]", "value": 0.006}, {"measurement": "luciferase activity increase", "setting": "[2]; Hepa1c1c7 cells, 10 μM, 24 h, positive controls", "value": 3.7, "unit": "fold"}, {"measurement": "maximum response, luciferase activity", "setting": "[2]; Hepa1c1c7 cells", "value": 5.9, "unit": "fold"}, {"measurement": "fold more potent (lower EC50) in Hepa1c1c7 than in HepG2, luciferase reporter", "setting": "[3]; mAhR vs hAhR, cell lines", "value": "approximately 53 fold"}, {"measurement": "REP ratio Hepa1c1c7/HepG2", "setting": "[3]", "value": 3}]}, {"smiles": "Clc1cc(-c2cc(Cl)c(Cl)c(Cl)c2)cc(Cl)c1Cl", "note": "[PCB 169]", "values": [{"measurement": "Relative effect potency (REP) HepG2", "setting": "[1]", "value": "≤ 0.00005"}, {"measurement": "WHO 2005 TEF fold higher than the human REP", "setting": "[1]; TEF vs HepG2 REP of this study", "value": "> 300", "unit": "fold"}, {"measurement": "EC50", "setting": "[1]; [10]", "value": "≥ 7000", "unit": "nM"}, {"measurement": "Relative effect potency (REP) Hepa1c1c7", "setting": "[2]", "value": 0.001}, {"measurement": "REP ratio Hepa1c1c7/HepG2", "setting": "[3]", "value": "≥ 20"}]}, {"smiles": "Clc1cc2c(cc1Cl)Oc1cc(Cl)c(Cl)cc1O2", "note": "[TCDD, 2,3,7,8-tetrachlorodibenzo-p-dioxin, reference compound]", "values": [{"measurement": "EC50", "setting": "[1]", "value": "0.4 ± 0.1", "unit": "nM"}, {"measurement": "Relative effect potency (REP) HepG2", "setting": "[1]", "value": 1}, {"measurement": "maximum response, luciferase activity", "setting": "[1]; HepG2 cells", "value": 83, "unit": "fold"}, {"measurement": "EC50 at 24 h", "setting": "[7]", "value": "0.45 ± 0.34", "unit": "nM"}, {"measurement": "EC50 at 24 h", "setting": "[8]", "value": "0.04 ± 0.02", "unit": "nM"}, {"measurement": "REP ratio Hepa1c1c7/HepG2", "setting": "[3]", "value": 1}, {"measurement": "maximal fold induction at 24 h", "setting": "[9]", "value": 2.2}]}]}
